Measurements reported in patent publication US8889848B2, “HCV genotype 3 replicons” (priority 2011, dated 2014).
Where two headings read alike, the source gives them in different places.

Key:
Type in all cases: cell-based, HCV
[1] = tested on: Pi-Rluc-GT3a-P89L/A166T replicon; assay: Transient replicon antiviral assay, Pi-Rluc-GT3a-P89L/A166T in 1C cells; conditions: for GT3a(P89L/A166T)/Ib EC50 Ratio: EC50 GT3a P89L/A166T divided by EC50 GT1b; for EC50: transient transfection, 1C cells, 3 days, renilla luciferase, mean of at least two experiments
Description: (§1) Replicon RNA were electroporated into 1C cells as described above. After transfection, cells were quickly transferred into 100 mL of pre-warmed culture medium, and 90 μl was seeded in 384-well plates at a density of 2,000 cells/well. Cells were treated with three-fold serial drug dilutions at 10 different concentrations. Cell plates were incubated at 37° C. for 3 days, after which culture medium was removed and cells were assayed for luciferase activity as markers for replicon levels. Luciferase expression was quantified using a commercial luciferase assay (Promega). Luciferase levels were converted into percentages relative to the levels in the untreated controls (defined as 100%), and data were fitted to the logistic dose-response equation y=a/[1+(x/b)^c] using XLFit4 software (IDBS, Emeryville, Calif.).
(§2) To investigate antiviral activity against genotype 3a, five different classes of HCV inhibitors were tested in a transient assay of the genotype 3a Pi-Rluc replicon: NS3 protease, NS5A, NS5B active site, NS5B non-active site, and host factor inhibitors. A standard genotype 1b Pi-Rluc replicon was tested in parallel. The transient replicon replication assays were performed in 1C cells to minimize the potential influence of host cell difference on compound antiviral activities. EC50 values against both genotype 1b and genotype 3a replicons were successfully generated for all inhibitors using a high-throughput 384-well assay measuring Rluc activity (Table 10).
(§3) Five different classes of HCV inhibitors as listed in the first column were evaluated for their antiviral activities against GT1b and GT3a Pi-Rluc replicon in a transient transfection high-throughput 384-well format by measuring renilla luciferase activity. Data presented in the table represent the mean of at least two independent experiments.

[2] = tested on: genotype 1b Pi-Rluc replicon; assay: Transient replicon antiviral assay, Pi-Rluc-GT1b in 1C cells; conditions: transient transfection, 3 days, renilla luciferase, mean of at least two experiments
Description: as §1, §2, §3

[3] = tested on: Pi-Rluc-GT3a-P89L/K583E replicon; assay: Transient replicon antiviral assay, Pi-Rluc-GT3a-P89L/K583E in 1C cells; conditions: for GT3a(P89L/K583E)/Ib EC50 Ratio: EC50 GT3a P89L/K583E divided by EC50 GT1b; for EC50: transient transfection, 1C cells, 3 days, renilla luciferase, mean of at least two experiments
Description: as §1, §2, §3

[4] = tested on: genotype 3a Pi-Rluc replicon; assay: Transient genotype 3a Pi-Rluc replicon assay, summary over both GT3a replicons; conditions: for EC50: read-out: EC50 values against genotype 3a
Description: as §1, §2

SMILES | GT3a(P89L/A166T)/Ib EC50 Ratio [1] | EC50 ([1]; Hepatitis C virus, GT3A, 72 h) | EC50 ([2]; Hepatitis C virus, 72 h) | GT3a(P89L/K583E)/Ib EC50 Ratio [3] | EC50 ([3]; Hepatitis C virus, GT3A, 72 h) | EC50 ([4]; Hepatitis C virus) | fold less active (less potent) against genotype 3a versus genotype 1b ([4]; transient Pi-Rluc replicons) | EC50 [1] | EC50 ([4]; range over the two GT3a Pi-Rluc replicons) | EC50 [2] | EC50 [3] | fold more active against genotype 3a compared with genotype 1b ([4]; transient Pi-Rluc replicons) | potency against genotype 1b and 3a replicons compared (in words) ([4]; transient Pi-Rluc replicons)
COc1ccc2c(O[C@@H]3C[C@H]4C(=O)N[C@]5(C(=O)O)C[C@H]5/C=C\CCCCC[C@H](NC(=O)OC5CCCC5)C(=O)N4C3)cc(-c3csc(NC(C)C)n3)nc2c1 [BILN-2061] | 478 | 447 nM | 0.93 nM | 102 | 95 nM | – | – | – | – | – | – | – | –
COC(=O)N[C@H](C(=O)N1CCC[C@H]1c1nc(-c2ccc(-c3ccc(-c4c[nH]c([C@@H]5CCCN5C(=O)[C@@H](NC(=O)OC)C(C)C)n4)cc3)cc2)c[nH]1)C(C)C [BMS-790052] | 11 | 0.31 nM | 0.03 nM | 15 | 0.45 nM | 0.31 to 0.45 nM | 11 fold | – | – | – | – | – | –
CC(C)(C)NC(=O)N[C@H](C(=O)N1C[C@H]2[C@@H]([C@H]1C(=O)NC(CC1CCC1)C(=O)C(N)=O)C2(C)C)C(C)(C)C (stereo partly shown) [Boceprevir, boceprevir] | 2.44 | 460 nM | – | 1.45 | 273 nM | – | – | – | – | – | – | – | –
CCc1cc(CC[C@]2(C3CCCC3)CC(O)=C(Cc3nc4nc(C)cc(C)n4n3)C(=O)O2)cc(CC)n1 [Filibuvir, filibuvir] | 17 | 2040 nM | 121 nM | 7.4 | 895 nM | – | approximately 17 fold | – | – | – | – | – | –
COC(=O)N[C@H](C(=O)N1CC2(CC2)C[C@H]1c1nc(-c2ccc3c(c2)C(F)(F)c2cc(-c4ccc5[nH]c([C@@H]6[C@H]7CC[C@H](C7)N6C(=O)[C@@H](NC(=O)OC)C(C)C)nc5c4)ccc2-3)c[nH]1)C(C)C [GS-5885] | 22370 | – | – | 9758 | – | – | approximately 10.000 fold | 92 nM | 40 to 92 nM | 0.0041 nM | 40 nM | – | –
CC(C)OC(=O)[C@H](C)N[P@](=O)(OC[C@H]1O[C@@H](n2ccc(=O)[nH]c2=O)[C@](C)(F)[C@@H]1O)Oc1ccccc1 [GS-7977] | 0.31 | – | – | 0.15 | – | – | – | 12 nM | – | 40 nM | 5.8 nM | – | –
Fc1ccccc1-c1nc2ccn(Cc3ccc(-c4ccc(C(F)(F)F)cc4C(F)(F)F)nn3)cc-2n1 [GS-9190] | 17 | – | – | 18 | – | – | approximately 17 fold | 42 nM | – | 3 nM | 46 nM | – | –
CC[C@@H]1C[C@]1(NC(=O)[C@@H]1C[C@@H](Oc2cc(-c3csc(NC(C)C)n3)nc3c(Cl)c(OCCN4CCOCC4)ccc23)CN1C(=O)[C@@H](NC(=O)O[C@@H]1C[C@@H]2C[C@@H]2C1)C(C)(C)C)C(=O)O [GS-9451] | 173 | – | – | 97 | – | – | – | 1650 nM | – | 10 nM | 921 nM | – | –
CC1=CC[C@H](C(=O)N(c2cc(C#CC(C)(C)C)sc2C(=O)O)[C@H]2CC[C@](O)(CO[C@H]3CCOC3)CC2)CC1 [GS-9669] | 61 | – | – | 33 | – | – | ~60 fold | 230 nM | – | 3.8 nM | 125 nM | – | –
CNC(=O)c1c(-c2ccc(F)cc2)oc2cc(N(CCO)S(C)(=O)=O)c(C3CC3)cc12 [HCV-796] | 0.14 | 2.8 nM | 20 nM | 0.12 | 2.4 nM | – | – | – | – | – | – | ~7 fold | –
CN(C)CCN(C)[C@H]1COc2ccccc2-c2c(C3CCCCC3)c3ccc(C(=O)O)cc3n2C1 [MK-3281] | 0.47 | 277 nM | 587 nM | 0.31 | 180 nM | – | – | – | – | – | – | about 2 fold | –
C=C[C@@H]1C[C@]1(NC(=O)[C@@H]1C[C@@H]2CN1C(=O)[C@H](C(C)(C)C)NC(=O)O[C@@H]1C[C@H]1CCCCCc1nc3ccc(OC)cc3nc1O2)C(=O)NS(=O)(=O)C1CC1 [MK-5172] | 74 | 60 nM | 0.81 nM | 28 | 23 nM | – | – | – | – | – | – | – | –
C/C=C/C[C@@H](C)[C@@H](O)[C@H]1C(=O)N[C@@H](CC)C(=O)N(C)[C@H](SCCN(C)C)C(=O)N(C)[C@@H](CC(C)(C)O)C(=O)N[C@@H](C(C)C)C(=O)N(C)[C@@H](CC(C)C)C(=O)N[C@@H](C)C(=O)N[C@H](C)C(=O)N(C)[C@@H](CC(C)C)C(=O)N(C)[C@@H](CC(C)C)C(=O)N(C)[C@@H](C(C)C)C(=O)N1C [SCY-635] | 1.2 | 78 nM | 65 nM | 0.91 | 59 nM | – | – | – | – | – | – | – | equivalent potency
CCC[C@H](NC(=O)[C@@H]1[C@H]2CCC[C@H]2CN1C(=O)[C@@H](NC(=O)[C@@H](NC(=O)c1cnccn1)C1CCCCC1)C(C)(C)C)C(=O)C(=O)NC1CC1 [Telaprevir, telaprevir] | 1.6 | 650 nM | 407 nM | 3.27 | 1330 nM | – | – | – | – | – | – | – | –
